± gives the standard deviation of the averaged measurements.
Assay: TIMS collisional cross section (CCS, N2) of the lipid ion; higher = larger ion cross section
Conditions: ionization mode: positive, one isomer drawn

| SMILES | TIMS collisional cross section (sample type: plasma) [Å²] | TIMS collisional cross section (sample type: Liver) [Å²] | TIMS collisional cross section (sample type: HeLa) [Å²] |
| --- | --- | --- | --- |
| CC/C=C\C/C=C\C/C=C\C/C=C\C/C=C\CCCC(=O)OC[C@@H](COC(=O)CCCCCCCCCCCCCCCCC)OC(=O)CCCCCCC/C=C\C/C=C\C/C=C\CC [TG 18:0_18:3_20:5] (ion (formula + adduct): [C59H98O6+NH4] 1+) | 325.1 |  |  |
| CCCCCCCCCCCCCCCCCCCCCC(=O)OC[C@@H](COC(=O)CCCCCCCCCCCCCCCCC)OC(=O)CCCCCCCCCCCCCCCCCC [TG 18:0_19:0_22:0] (ion (formula + adduct): [C62H120O6+NH4] 1+) |  | 346.5 |  |
| CCCCCCCCCCCCCCCCCCCCCC(=O)OC[C@@H](COC(=O)CCCCCCCCCCCCCCCCC)OC(=O)CCCCCCCCCCCCCCCCCCC [TG 18:0_20:0_22:0] (ion (formula + adduct): [C63H122O6+NH4] 1+) | 349.1 | 349.3 |  |
| CC/C=C\C/C=C\C/C=C\C/C=C\C/C=C\CCCCCC(=O)OC[C@@H](COC(=O)CCCCCCCCCCCCCCCCC)OC(=O)CCC/C=C\C/C=C\C/C=C\C/C=C\CCCCC [TG 18:0_20:4_22:5] (ion (formula + adduct): [C63H104O6+NH4] 1+) |  |  | 334.8 |
| CCCCCCCCCCCCCCCCCCCCCC(=O)OC[C@@H](COC(=O)CCCCCCCCCCCCCCCCC)OC(=O)CCCCCCCCCCCCCCCCCCCC [TG 18:0_21:0_22:0] (ion (formula + adduct): [C64H124O6+NH4] 1+) | 352.7 | 351.7 |  |
| CCCCCCCCCCCCCCCCCCCCCC(=O)OC[C@@H](COC(=O)CCCCCCCCCCCCCCCCC)OC(=O)CCCCCCCCCCCCCCCCCCCCC [TG 18:0_22:0_22:0] (ion (formula + adduct): [C65H126O6+NH4] 1+) | 355.2 | 355.9 |  |
| CCCCCCCC/C=C\CCCCCCCCCCCC(=O)OC[C@@H](COC(=O)CCCCCCCCCCCCCCCCC)OC(=O)CCCCCCCCCCCCCCCCCCCCC [TG 18:0_22:0_22:1] (ion (formula + adduct): [C65H124O6+NH4] 1+) | 352.8 |  |  |
| CCCCC/C=C\C/C=C\CCCCCCCCCCCC(=O)OC[C@@H](COC(=O)CCCCCCCCCCCCCCCCC)OC(=O)CCCCCCCCCCCCCCCCCCCCC [TG 18:0_22:0_22:2] (ion (formula + adduct): [C65H122O6+NH4] 1+) | 351 |  |  |
| CCCCCCCC/C=C\CCCCCCCCCCCC(=O)OC[C@@H](COC(=O)CCCCCCCCCCCCCCCCC)OC(=O)CCCCCCCCCCC/C=C\CCCCCCCC [TG 18:0_22:1_22:1] (ion (formula + adduct): [C65H122O6+NH4] 1+) |  |  | 350.2 |
| CCCCC/C=C\C/C=C\CCCCCCCC(=O)OC[C@@H](COC(=O)CCCCCCC/C=C\CCCCCCCC)OC(=O)CCCCCCC/C=C\CCCCCCCC [TG 18:1_18:1_18:2] (ion (formula + adduct): [C57H102O6+NH4] 1+) | 324.25 ± 0.35 |  | 324.3 |
| CCCCCCCC/C=C\CCCCCCCC(=O)OC[C@H](COC(=O)CCCCCCC/C=C\CCCCCCCCC)OC(=O)CCCCCCC/C=C\CCCCCCCC [TG 18:1_18:1_19:1] (ion (formula + adduct): [C58H106O6+NH4] 1+) |  |  | 329.1 |
| CCCCCCCC/C=C\CCCCCCCCCC(=O)OC[C@@H](COC(=O)CCCCCCC/C=C\CCCCCCCC)OC(=O)CCCCCCC/C=C\CCCCCCCC [TG 18:1_18:1_20:1] (ion (formula + adduct): [C59H108O6+NH4] 1+) | 332.4 |  | 332.1 |
| CCCCC/C=C\C/C=C\C/C=C\CCCCCCC(=O)OC[C@@H](COC(=O)CCCCCCC/C=C\CCCCCCCC)OC(=O)CCCCCCC/C=C\CCCCCCCC [TG 18:1_18:1_20:3] (ion (formula + adduct): [C59H104O6+NH4] 1+) |  | 330.2 |  |
| CCCCCCCC/C=C\CCCCCCCC(=O)OC[C@H](COC(=O)CCCCCCCCCCCCCCCCCCCC)OC(=O)CCCCCCC/C=C\CCCCCCCC [TG 18:1_18:1_21:0] (ion (formula + adduct): [C60H112O6+NH4] 1+) | 336.2 |  |  |
| CCCCCCCC/C=C\CCCCCCCC(=O)OC[C@H](COC(=O)CCCCCCCCCCCCCCCCCCCCC)OC(=O)CCCCCCC/C=C\CCCCCCCC [TG 18:1_18:1_22:0] (ion (formula + adduct): [C61H114O6+NH4] 1+) | 339.3 | 339.7 |  |
| CCCCCCCC/C=C\CCCCCCCCCCCC(=O)OC[C@@H](COC(=O)CCCCCCC/C=C\CCCCCCCC)OC(=O)CCCCCCC/C=C\CCCCCCCC [TG 18:1_18:1_22:1] (ion (formula + adduct): [C61H112O6+NH4] 1+) |  |  | 337.8 |
| CCCCC/C=C\C/C=C\C/C=C\C/C=C\CCCCCC(=O)OC[C@@H](COC(=O)CCCCCCC/C=C\CCCCCCCC)OC(=O)CCCCCCC/C=C\CCCCCCCC [TG 18:1_18:1_22:4] (ion (formula + adduct): [C61H106O6+NH4] 1+) | 333.8 | 334.9 |  |

| SMILES | TIMS collisional cross section (sample type: plasma) [Å²] | TIMS collisional cross section (sample type: Liver) [Å²] | TIMS collisional cross section (sample type: HeLa) [Å²] |
| --- | --- | --- | --- |
| CC/C=C\C/C=C\C/C=C\C/C=C\C/C=C\CCCCCC(=O)OC[C@@H](COC(=O)CCCCCCC/C=C\CCCCCCCC)OC(=O)CCCCCCC/C=C\CCCCCCCC [TG 18:1_18:1_22:5] (ion (formula + adduct): [C61H104O6+NH4] 1+) | 332.6 |  | 332.3 |
| CC/C=C\C/C=C\C/C=C\C/C=C\C/C=C\C/C=C\CCC(=O)OC[C@@H](COC(=O)CCCCCCC/C=C\CCCCCCCC)OC(=O)CCCCCCC/C=C\CCCCCCCC [TG 18:1_18:1_22:6] (ion (formula + adduct): [C61H102O6+NH4] 1+) |  |  | 331.3 |
| CCCCC/C=C\C/C=C\CCCCCCCC(=O)OC[C@@H](COC(=O)CCCCCCC/C=C\CCCCCCCC)OC(=O)CCCCCCC/C=C\C/C=C\CCCCC [TG 18:1_18:2_18:2] (ion (formula + adduct): [C57H100O6+NH4] 1+) | 322.17 ± 0.57 | 322.5 ± 0.14 |  |
| CC/C=C\C/C=C\C/C=C\CCCCCCCC(=O)OC[C@@H](COC(=O)CCCCCCC/C=C\CCCCCCCC)OC(=O)CCCCCCC/C=C\C/C=C\CCCCC [TG 18:1_18:2_18:3] (ion (formula + adduct): [C57H98O6+NH4] 1+) | 319.9 |  |  |
| CCCCC/C=C\C/C=C\CCCCCCCC(=O)O[C@H](COC(=O)CCCCCCC/C=C\CCCCCCCC)COC(=O)CCCCCCCCCCCCCCCCCC [TG 18:1_18:2_19:0] (ion (formula + adduct): [C58H106O6+NH4] 1+) |  | 329.2 |  |
| CCCCC/C=C\C/C=C\CCCCCCCC(=O)O[C@H](COC(=O)CCCCCCC/C=C\CCCCCCCC)COC(=O)CCCCCCC/C=C\CCCCCCCCC [TG 18:1_18:2_19:1] (ion (formula + adduct): [C58H104O6+NH4] 1+) | 327.3 | 327 | 327.7 |
| CCCCC/C=C\C/C=C\CCCCCCCC(=O)O[C@H](COC(=O)CCCCCCC/C=C\CCCCCCCC)COC(=O)CCCCCCCCCCCCCCCCCCC [TG 18:1_18:2_20:0] (ion (formula + adduct): [C59H108O6+NH4] 1+) |  | 332.3 |  |
| CCCCC/C=C\C/C=C\CCCCCCCC(=O)O[C@H](COC(=O)CCCCCCC/C=C\CCCCCCCC)COC(=O)CCCCCCCCC/C=C\CCCCCCCC [TG 18:1_18:2_20:1] (ion (formula + adduct): [C59H106O6+NH4] 1+) | 330.8 |  | 331.8 |
| CCCCC/C=C\C/C=C\C/C=C\C/C=C\CCCC(=O)OC[C@@H](COC(=O)CCCCCCC/C=C\CCCCCCCC)OC(=O)CCCCCCC/C=C\C/C=C\CCCCC [TG 18:1_18:2_20:4] (ion (formula + adduct): [C59H100O6+NH4] 1+) |  | 325.7 |  |
| CCCCC/C=C\C/C=C\CCCCCCCC(=O)O[C@H](COC(=O)CCCCCCC/C=C\CCCCCCCC)COC(=O)CCCCCCCCCCCCCCCCCCCC [TG 18:1_18:2_21:0] (ion (formula + adduct): [C60H110O6+NH4] 1+) |  | 334.4 |  |
| CCCCC/C=C\C/C=C\CCCCCCCC(=O)O[C@H](COC(=O)CCCCCCC/C=C\CCCCCCCC)COC(=O)CCCCCCCCCCCCCCCCCCCCC [TG 18:1_18:2_22:0] (ion (formula + adduct): [C61H112O6+NH4] 1+) | 337.6 | 338.2 |  |
| CCCCC/C=C\C/C=C\CCCCCCCC(=O)O[C@H](COC(=O)CCCCCCC/C=C\CCCCCCCC)COC(=O)CCCCCCCCCCC/C=C\CCCCCCCC [TG 18:1_18:2_22:1] (ion (formula + adduct): [C61H110O6+NH4] 1+) | 335 | 335.3 |  |
| CCCCC/C=C\C/C=C\CCCCCCCCCCCC(=O)OC[C@@H](COC(=O)CCCCCCC/C=C\CCCCCCCC)OC(=O)CCCCCCC/C=C\C/C=C\CCCCC [TG 18:1_18:2_22:2] (ion (formula + adduct): [C61H108O6+NH4] 1+) | 335.8 |  |  |
| CCCCC/C=C\C/C=C\C/C=C\C/C=C\CCCCCC(=O)OC[C@@H](COC(=O)CCCCCCC/C=C\CCCCCCCC)OC(=O)CCCCCCC/C=C\C/C=C\CCCCC [TG 18:1_18:2_22:4] (ion (formula + adduct): [C61H104O6+NH4] 1+) | 332.1 | 332.5 |  |
| CC/C=C\C/C=C\C/C=C\C/C=C\C/C=C\C/C=C\CCC(=O)OC[C@@H](COC(=O)CCCCCCC/C=C\CCCCCCCC)OC(=O)CCCCCCC/C=C\C/C=C\CCCCC [TG 18:1_18:2_22:6] (ion (formula + adduct): [C61H100O6+NH4] 1+) | 329 |  |  |
| CCCCCCCC/C=C\CCCCCCCCCC(=O)OC[C@@H](COC(=O)CCCCCCC/C=C\CCCCCCCC)OC(=O)CCCCCCCCCCCCCCCCCC [TG 18:1_19:0_20:1] (ion (formula + adduct): [C60H112O6+NH4] 1+) |  | 337 | 336.7 |

From the supplement of paper PMC6965134
